According to PMC3227622, “GnRH receptor activation competes at a low level with growth signaling in stably transfected human breast cell lines” (BMC Cancer, 2011):
pIC50: −log10 of the molar value. “Also recorded” adds a separate entry of the source. Read-outs that look alike come from different tables or passages of the source. One block for each compound: values may come before it.

Legend:
MCF-7hygro14 cells = experiment: SRB cell growth assay, MCF-7hygro14 (MCF-7-30-7hygro14); assay type: cell-based, human; conditions: for pIC50: 96 h, without co-treatment, read-out: IC50 growth inhibition; for pIC50 / effect on cell growth of co-treatment / effect on cell growth: 4 days
Protocol: (§1) Cells were cultured in Dulbecco's modified Eagle's medium (DMEM) with 10% fetal bovine serum. Medium for SVCT cells was supplemented with recombinant human insulin and hydrocortisone as specified by the suppliers (ECACC, UK). HEK293[SCL60] and WPE-1-NB26-8 cells were cultured as described elsewhere. Cells were transfected with a plasmid construct, pcDNA3.1(+) (neo) (Invitrogen, UK) containing a rat GnRH receptor cDNA insert, using Fugene 6 (Roche, UK) in Optimem-I (GIBCO, Invitrogen, UK). Cell clones growing in 6 cm dishes were picked using trypsinization in cloning cylinders (Sigma, UK) and sequentially expanded in multiwell plates and flasks prior to characterization. Sub-clones were generated by re-transfecting an individual clone with a 2.334 kb SV40 promoter-hygromycin phosphotransferase cDNA fragment excised from pcDNA3.1(-) (hygro) plasmid (Invitrogen, UK) using PvuII (Promega, UK) and purified following agarose gel electrophoresis.
(§2) Cells were seeded into 12 well plates and growth was monitored using the sulforhodamine B (SRB) staining assay described previously. Two milliliters culture medium per well was sufficient to sustain cell growth over all time courses investigated. Cells were treated with a dose range of Triptorelin or vehicle (20% propylene glycol, Sigma, UK). Similar experiments employing IGF-IR, EGFR/ErbB2 and PI3K inhibitors were performed. Assay measurements were performed in triplicate and were repeated on separate occasions. At each time point, cells were fixed by adding 1 ml 25% trichloroacetic acid to each well, stored at 4°C for 1 h before gently washing and drying plates. Fixed cells were stained with 0.4% SRB in 1% acetic acid, washed, dried and dissolved in 1 ml 0.1 M Tris pH 10. Absorbance measurements at 540 nm correlated with the number of cells per well.
(§3) Immuno-fluorescence data were analyzed by one-way ANOVA using Minitab version 16 (Minitab Inc., USA). Prism software (GraphPad, USA) was used to prepare graphs and to calculate EC50 and IC50 values. Western blots were quantified using ImageQuant software (GE Healthcare). Quantitative data were analyzed using on-line tools for T-test, http://easycalculation.com/statistics/standard-deviation.php and http://www.quantitativeskills.com/sisa/.

SVCT-2 cells = experiment: SRB cell growth assay, SVCT-2 (rat GnRH receptor transfected); assay type: cell-based, human; conditions: for pIC50: Homo sapiens; for pIC50 / effect on cell growth of co-treatment / effect on cell growth: SRB; for effect on cell growth: single treatment
Protocol: as §1, §2, §3

[1] = system: p-ERK1/2 in MCF-7hygro14 cells; experiment: p-ERK1/2 western blot, MCF-7hygro14; assay type: cell-based, human; conditions: for ERK1/2 re-phosphorylation after inhibitor wash-off: 1 h exposure to IGF-IR inhibitor II, then medium containing serum
Protocol: (§4) Cells were grown in six-well plastic culture plates until 50-70% confluent. Some samples were washed twice with phosphate buffered saline prior to incubation in serum-free medium overnight. Cells were treated with 100 nM Triptorelin or vehicle for specific time periods prior to lysis and harvesting. Samples were processed for western blotting as described previously using NP40 lysis buffer at 4°C [8, 9]. For quantitative data, time points were measured in triplicate. Blots were imaged by a Typhoon phosphor-imager (GE Healthcare, UK) using enhanced chemi-fluorescence detection and analyzed using ImageQuant software (GE Healthcare, UK).
as §3

HEK293[SCL60] cells = experiment: SRB cell growth assay, HEK293[SCL60]; assay type: cell-based, human; conditions: SRB (Triptorelin: after 4 days)
Excerpt: Most reagents were purchased from Sigma UK, including D-Trp^6GnRH-I (D-Trp^6-LHRH, Triptorelin). Antibodies for ERK-1/2 and phosphorylated-ERK1/2 were purchased from Cell Signaling Technology, UK and for β-actin, from Sigma, UK. Secondary antibodies conjugated to alkaline phosphatase were from Sigma, UK. Insulin like growth factor receptor-I (IGF-IR) inhibitor II, EGFR/ErbB2 inhibitor and phosphatidylinositol-4,5-bisphosphate 3-kinase γ (PI3Kγ) inhibitor were purchased from Calbiochem, UK. SVCT cells were purchased from ECACC, UK. MCF-7, MDA-MB-231, ZR-75-1, and T47D cells were from American Type Culture Collection (LGC, UK). The GnRH receptor stably transfected HEK293[SCL60] and prostate WPE-1-NB26-8 cell lines described elsewhere together with HEK293 cells were used as controls for comparison.
Cells were cultured in Dulbecco's modified Eagle's medium (DMEM) with 10% fetal bovine serum. Medium for SVCT cells was supplemented with recombinant human insulin and hydrocortisone as specified by the suppliers (ECACC, UK). HEK293[SCL60] and WPE-1-NB26-8 cells were cultured as described elsewhere. […]
Cells were seeded into 12 well plates and growth was monitored using the sulforhodamine B (SRB) staining assay described previously. […] Absorbance measurements at 540 nm correlated with the number of cells per well.

[2] = system: p-ERK1/2 in MDA-MB-231-34 cells; experiment: p-ERK1/2 western blot, MDA-MB-231-34; assay type: cell-based, human; conditions: IGF-IR inhibitor II
Protocol: as §4, §3

[3] = system: p-ERK1/2 in HEK293[SCL60] cells; experiment: p-ERK1/2 western blot, HEK293[SCL60]; assay type: cell-based, human; conditions: IGF-IR inhibitor washed off, without Triptorelin
Protocol: as §4, §3

MDA-MB-231-34 cells = experiment: SRB cell growth assay, MDA-MB-231-34; assay type: cell-based, human; conditions: SRB (Triptorelin 100 nM)
Protocol: as §1
Cells were seeded into 12 well plates and growth was monitored using the sulforhodamine B (SRB) staining assay described previously. Two milliliters culture medium per well was sufficient to sustain cell growth over all time courses investigated. Cells were treated with a dose range of Triptorelin or vehicle (20% propylene glycol, Sigma, UK). […] Absorbance measurements at 540 nm correlated with the number of cells per well.

[4] = set-up: method as in PMID 17512856, PMID 19213681; conditions: by inhibiting secretion of luteinizing hormone and follicle stimulating hormone; ref [1],[2]; cited from earlier work
[5] = co-treatment with 100 nM Triptorelin, SRB
[6] = single treatment, SRB (Triptorelin 100 nM)
[7] = 96 h, without co-treatment, 4 days, read-out: IC50 growth inhibition
[8] = co-treatment with 100 nM Triptorelin, 4 days
[9] = 15-20 μM IGF-IR inhibitor II, in the presence of serum
[10] = listed as IGF-I receptor inhibitor

- pIC50 (MCF-7hygro14 cells; Homo sapiens, SRB): ~5.30
Compound: COc1cc2ncnc(Nc3ccc(OCc4ccccc4)cc3)c2cc1OC [EGFR/ErbB2 inhibitor, 4-(4-Benzyloxyanilino)-6,7-dimethoxyquinazoline]
- growth inhibition (MCF-7hygro14 cells; after 4 days, SRB): 50%
- effect on cell growth of co-treatment (MCF-7hygro14 cells; [5]): no significant growth-inhibition; also recorded: did not significantly affect growth
- effect on cell growth (MCF-7hygro14 cells; [6]): inhibited
- pIC50 (SVCT-2 cells; [7]): ~5.70
- growth inhibition relative to vehicle treated cells (SVCT-2 cells; after 4 days, SRB staining, 540 nm, DMEM with 10% fetal bovine serum, triplicate): 50%
- effect on cell growth of co-treatment (SVCT-2 cells; [8]): did not significantly affect growth; also recorded: had no effect
- effect on cell growth (SVCT-2 cells; 4 days): reduced SVCT-2 cell growth

- pIC50 (MCF-7hygro14 cells; Homo sapiens, SRB): ~4.77
Compound: COc1ccc(Cl)cc1NC(=O)Nc1cc(C)nc2ccccc12 [IGF-IR inhibitor II, N-(2-Methoxy-5-chlorophenyl)-N'-(2-methylquinolin-4-yl)-urea]
- effect on levels of p-ERK1/2 [1, 9]: permanent decrease in levels of p-ERK1/2
- time to decrease in p-ERK1/2 [1, 9]: ≤ 30 min
- effect on levels of p-ERK1/2 ([1]; 15-20 μM IGF-IR inhibitor II, in the presence of serum, listed as IGF-IR inhibitor): rapid and sustained de-phosphorylation of ERK1/2; also recorded: rapid decrease in the levels of p-ERK1/2
- ERK1/2 re-phosphorylation after inhibitor wash-off [1]: rapid hyper-phosphorylation of ERK1/2 followed by a slow decline
- ERK1/2 re-phosphorylation after inhibitor wash-off [1, 10]: Rapid re-phosphorylation of ERK1/2
- ERK1/2 re-phosphorylation after inhibitor wash-off ([1]; listed as IGF-IR inhibitor): rapid hyper-phosphorylation of ERK1/2, followed by a slow decline to basal levels
- effect on cell growth (HEK293[SCL60] cells): inhibited
- effect on levels of p-ERK1/2 [2]: did not elicit this effect
- effect on levels of p-ERK1/2 ([2]; listed as IGF-IR inhibitor): not in MDA-MB-231-34 cells; also recorded: did not affect levels of p-ERK1/2
- ERK1/2 re-phosphorylation after inhibitor wash-off [3]: hyper-phosphorylation of ERK1/2 did not occur
- ERK1/2 re-phosphorylation after inhibitor wash-off [3, 10]: Re-phosphorylation of ERK1/2 was less marked
- ERK1/2 re-phosphorylation after inhibitor wash-off ([3]; listed as IGFR-IR inhibitor II): rapid hyper-phosphorylation of ERK1/2 did not occur
- inhibition at 15 µM (MCF-7hygro14 cells; Homo sapiens, 15 μM, exposure up to 2 hours, PBS washout, growth over 4 days, read-out: growth inhibition after transient exposure and washout): < 10%
- effect on cell growth of co-treatment (MCF-7hygro14 cells; [5]): no significant effect
- growth inhibition after transient exposure and washout (MCF-7hygro14 cells; exposure 6 hours or more, PBS washout, growth over 4 days): more than 20%
- effect on cell growth (MCF-7hygro14 cells; [6]): Growth and survival were inhibited; also recorded: growth-inhibition and cell death
- effect on cell growth (MDA-MB-231-34 cells): inhibiting their growth also
- pIC50 (SVCT-2 cells; [7]): ~4.96
- pIC50 (SVCT-2 cells; co-treatment with 100 nM Triptorelin, read-out: apparent IC50 growth inhibition): ~5.05
- effect on cell growth of co-treatment (SVCT-2 cells; [8]): small additive effect; also recorded: increased growth inhibition marginally
- effect on cell growth of co-treatment (SVCT-2 cells; co-treatment with 100 nM Triptorelin, 4 days, listed as IGF-IR inhibitor): small additive growth-inhibitory effect
- effect on cell growth (SVCT-2 cells; 4 days): complete growth inhibition accompanied by cell death; also recorded: effectively inhibited

Compound: O=C1NC(=O)C(=Cc2ccc3nccnc3c2)S1 [PI3Kγ inhibitor, 5-Quinoxalin-6-ylmethylene-thiazolidine-2,4-dione]
- effect on cell growth (MCF-7hygro14 cells; PI3K inhibitor 5 nM to 7 μM, maximum dose 7 μM): not affected
- effect on cell growth (MCF-7hygro14 cells; PI3K inhibitor 5 nM to 7 μM, maximum dose 7 μM, listed as PI3K inhibitor): did not affect growth; also recorded: lack of effect
- effect on cell growth of co-treatment (MCF-7hygro14 cells; PI3K inhibitor up to 7 μM with 100 nM Triptorelin): no significant growth-inhibition
- effect on cell growth of co-treatment (MCF-7hygro14 cells; PI3K inhibitor up to 7 μM with 100 nM Triptorelin, listed as PI3K inhibitor): did not significantly alter this result

Compound: goserelin
- plasma levels of estrogen [4]: lowers plasma levels of estrogen
